For series [1], the system named is 4T1. Kind of series: cells. The class given is functional. Conditions: Mus musculus, time 72 hrs.
A further series has as its system HCT-116. Kind of series: Antiproliferative activity against human HCT-116 cells incubated for 72 hrs by MTT assay. The class given is functional, cell-based. Particulars: HCT-116, 72 h. Background: Formazan colour is commonly taken as a measure of viable cells.
Series [2] in a line: Antiproliferative activity against human HK-2 cells incubated for 72 hrs by MTT assay.
Series [3] deals with T1, Protein deacetylase HDAC6 (Homo sapiens, UniProt Q9UBN7).
T1 sequence (Q9UBN7 whole entry): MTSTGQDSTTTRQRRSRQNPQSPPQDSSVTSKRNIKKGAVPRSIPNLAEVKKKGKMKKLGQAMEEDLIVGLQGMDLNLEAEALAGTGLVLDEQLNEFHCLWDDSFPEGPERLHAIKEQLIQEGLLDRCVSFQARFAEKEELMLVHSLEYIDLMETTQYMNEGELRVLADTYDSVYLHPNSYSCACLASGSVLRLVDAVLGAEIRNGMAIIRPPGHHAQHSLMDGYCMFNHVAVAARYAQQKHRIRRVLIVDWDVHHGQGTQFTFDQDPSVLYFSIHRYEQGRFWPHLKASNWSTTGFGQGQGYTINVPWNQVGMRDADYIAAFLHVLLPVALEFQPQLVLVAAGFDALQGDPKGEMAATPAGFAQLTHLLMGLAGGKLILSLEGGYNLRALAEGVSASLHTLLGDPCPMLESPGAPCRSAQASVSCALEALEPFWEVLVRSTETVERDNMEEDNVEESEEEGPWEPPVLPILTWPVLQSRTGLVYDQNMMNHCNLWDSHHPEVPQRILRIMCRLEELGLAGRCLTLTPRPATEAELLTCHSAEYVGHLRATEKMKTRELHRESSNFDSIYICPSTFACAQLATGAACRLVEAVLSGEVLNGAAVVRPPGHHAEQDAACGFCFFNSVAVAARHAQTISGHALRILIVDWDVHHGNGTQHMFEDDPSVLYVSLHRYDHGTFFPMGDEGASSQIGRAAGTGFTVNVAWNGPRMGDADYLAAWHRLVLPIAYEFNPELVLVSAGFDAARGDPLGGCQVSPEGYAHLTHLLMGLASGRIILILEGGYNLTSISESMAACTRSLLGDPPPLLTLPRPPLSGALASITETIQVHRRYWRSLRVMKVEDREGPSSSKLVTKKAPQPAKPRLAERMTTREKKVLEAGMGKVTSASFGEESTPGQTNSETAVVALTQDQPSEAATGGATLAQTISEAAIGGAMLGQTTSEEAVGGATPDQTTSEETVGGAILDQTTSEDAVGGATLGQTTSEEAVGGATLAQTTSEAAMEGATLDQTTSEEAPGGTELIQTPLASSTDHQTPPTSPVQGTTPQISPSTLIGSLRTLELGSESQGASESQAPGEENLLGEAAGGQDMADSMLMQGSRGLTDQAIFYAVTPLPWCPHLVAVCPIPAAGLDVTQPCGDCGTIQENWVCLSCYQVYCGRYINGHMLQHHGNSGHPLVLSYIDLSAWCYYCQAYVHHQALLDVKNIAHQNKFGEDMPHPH
The experiment in a line: Inhibition of HDAC6 (unknown origin).

A further series has as its target T2, Histone deacetylase 8 (Homo sapiens, UniProt Q9BY41).
T2 sequence (Q9BY41 whole entry): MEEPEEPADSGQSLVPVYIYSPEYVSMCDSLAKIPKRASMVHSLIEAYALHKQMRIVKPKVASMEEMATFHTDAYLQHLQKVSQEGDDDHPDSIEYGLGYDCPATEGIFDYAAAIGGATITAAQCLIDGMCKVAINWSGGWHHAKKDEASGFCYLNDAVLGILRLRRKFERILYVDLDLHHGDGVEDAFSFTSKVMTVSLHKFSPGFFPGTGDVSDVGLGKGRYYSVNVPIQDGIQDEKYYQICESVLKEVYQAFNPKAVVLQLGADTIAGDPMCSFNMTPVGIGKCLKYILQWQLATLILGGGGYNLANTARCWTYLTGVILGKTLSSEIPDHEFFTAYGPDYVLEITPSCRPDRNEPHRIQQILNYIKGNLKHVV
The experiment in a line: Inhibition of HDAC8 (unknown origin).

The target in series [4] is T3, Histone deacetylase 3 (Mus musculus) (UniProt O88895).
T3 sequence (whole entry): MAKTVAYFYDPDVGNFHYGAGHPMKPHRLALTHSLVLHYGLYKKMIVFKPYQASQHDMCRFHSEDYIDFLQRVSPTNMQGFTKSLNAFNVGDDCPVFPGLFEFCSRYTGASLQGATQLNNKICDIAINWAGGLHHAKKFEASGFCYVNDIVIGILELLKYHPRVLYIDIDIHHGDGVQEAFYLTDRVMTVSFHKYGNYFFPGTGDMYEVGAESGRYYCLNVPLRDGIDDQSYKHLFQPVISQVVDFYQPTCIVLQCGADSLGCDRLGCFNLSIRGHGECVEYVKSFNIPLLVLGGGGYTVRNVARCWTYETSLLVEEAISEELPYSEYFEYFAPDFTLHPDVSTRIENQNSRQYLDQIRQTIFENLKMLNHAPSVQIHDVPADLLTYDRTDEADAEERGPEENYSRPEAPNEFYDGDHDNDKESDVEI
The experiment in a line: Inhibition of HDAC3 in mouse B16-F10 cells assessed as increase in Ac-H3 level at 2.5 uM incubated for 24 hrs by immunofluorescence based analysis. It counts as cell-based.

Series [5] deals with Programmed cell death 1 ligand 1 (Mus musculus) (UniProt Q9EP73). Kind of series: Induction of PD-L1 degradation in mouse B16-F10 cells at 5 uM incubated for 24 hrs in presence of MG-132 by Western blot analysis. It counts as cell-based. On the technique in general: Immunoblotting shows a protein as a band on a membrane.
Programmed cell death 1 ligand 1 (Mus musculus), sequence (Q9EP73 whole entry): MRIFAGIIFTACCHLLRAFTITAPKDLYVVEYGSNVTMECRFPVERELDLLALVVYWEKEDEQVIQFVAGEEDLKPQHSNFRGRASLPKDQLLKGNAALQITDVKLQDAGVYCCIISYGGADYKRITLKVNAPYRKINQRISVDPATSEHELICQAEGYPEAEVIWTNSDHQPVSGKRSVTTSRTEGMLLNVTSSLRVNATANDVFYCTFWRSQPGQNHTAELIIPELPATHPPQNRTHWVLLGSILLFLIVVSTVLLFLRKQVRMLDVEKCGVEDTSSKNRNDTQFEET
For series [6] the target is unchanged. The experiment in a line: Induction of PD-L1 degradation in mouse B16-F10 cells at 2 uM incubated for 24 hrs in presence of CA-074 by Western blot analysis. It counts as cell-based.
In series [7] the test system is 4T1. The experiment in a line: Synergistic induction of DNA damage in mouse 4T1 cells assessed as increase in gamma-H2AX level at 1 uM incubated for 24 hrs in presence of Olaparib by Western blot analysis. It counts as functional, cell-based.
A short description of series [8]: Apparent volume of distribution in male Sprague-Dawley rat at 2 mg/kg, iv measured for 0.083 to 12 hrs by LC-MS/MS analysis. Particulars: in vivo, time 0.083-12 hrs, read-out: Vz. It counts as ADME, organism-based.
Series [9] can be described thus: Clast in male Sprague-Dawley rat at 20 mg/kg, po measured for 0.083 to 12 hrs by LC-MS/MS analysis. Particulars: in vivo, time 0.083-12 hrs. The class given is ADME, organism-based.
Series [10] in a line: Apparent volume of distribution in male Sprague-Dawley rat at 20 mg/kg, po measured for 0.083 to 12 hrs by LC-MS/MS analysis. The class given is ADME, organism-based. Conditions: in vivo, time 0.083-12 hrs.
Series [11] can be described thus: Toxicity in male C57BL/6J mouse implanted with mouse B16-F10 cells assessed as histopathological damage in heart at 25 mg/kg, IG treated for 14 days consecutively in presence of NP-19 by H and E staining based analysis. The class given is organism-based. Conditions: in vivo, po, 336 h, time 14 day.
Series [12] deals with 4T1. Kind of series: Synergistic induction of DNA damage in mouse 4T1 cells implanted in mouse assessed as increase in gamma-H2AX level at 25 mg/kg/day in presence of olaparib by Western blot analysis. It counts as functional, organism-based.
In series [13] the test system is 4T1. Kind of series: Synergistic induction of DNA damage in mouse 4T1 cells implanted in mouse assessed as decrease in PARP level at 25 mg/kg/day in presence of olaparib by immunofluorescence based analysis. It counts as functional, organism-based.

Data on two compounds can be found in ChEMBL document CHEMBL6182898, “Design, synthesis and bioevaluation of novel hydrazide derivatives as enhancers of immunotherapy and DNA-damage response in antitumor therapy” (Eur J Med Chem, 2025).

pIC50: −log10 of the molar value. Active and inactive are the calls of the source. The calls are words filed in the database; no cut-off is given here.

Broadly, the inhibition is the change of the read-out against control, counted positive when it falls. By pIC50 is commonly meant the negative decadic logarithm of the IC50, by convention in mol/L. Lower therefore signals a high IC50. A word on the IC50: it is the midpoint of a concentration-inhibition curve. Consider `CCCNNC(=O)c1ccc(NC(=O)c2cnc(-c3ccc(OC(F)(F)F)cc3)s2)cc1`, for which the inhibition at 10 µM in the series with 4T1 [1] came out at 32.8%. Besides, the results for the pIC50 (in the series on HCT-116; in [3]; at Histone deacetylase 8) were 5.78, less than 5.00 and less than 5.00, respectively. In addition, inhibition in [2] was half-maximal at 10.9 µM (IC50 at 72 h). Besides, the inhibition result in series [4] was “Active”.

In the series with 4T1 [1], `CCCNNC(=O)CCCCCCNC(=O)c1cnc(-c2ccc(NC(=O)OC(C)(C)C)cc2)s1` gave an inhibition at 10 µM of 33.1%. The figures for the pIC50 (with HCT-116; in series [3]; on Histone deacetylase 8) were 5.48, less than 5.00 and less than 5.00, respectively. The compound also yielded an IC50 at 72 h in series [2] of 11.5 µM. Further, the inhibition result in series [4] is “Active”. In addition, the outcome (in series [5]; with 4T1 [7]; with 4T1 [12]; in the series with 4T1 [13]) was Active. For the same compound, the result in [6] was inactive. In [8], the Vd came to 10.6 L/kg. The Clast in series [9] worked out at 0.27 ng/mL. Further, the Vz in [10] is 2785.62 L/kg. In addition, the Activity entry in series [11] is listed as “Non-toxic”.
